Results published in patent US10118947B2, “Modulation of structured polypeptide specificity” (BICYCLE THERAPEUTICS LIMITED, priority 2013, dated 2018).
Numbered stars: 1 amine (or outer) side, 2 acyl side, 3 side chain; on linkers, the order of the positions; unused ones are H or OH. Bridge positions count the residues as written; N and C are the ends. Square brackets hold non-standard residues; d marks the D form. Peptide text beside a SMILES is read from it. Pro(trans-4-Ph) = O=C(O)[C@@H]1C[C@@H](c2ccccc2)CN1; Gly(N-CH2CH2-imidazol-4-yl) = O=C(O)CNCCc1c[nH]cn1; 2Nal = N[C@@H](Cc1ccc2ccccc2c1)C(=O)O; TBMB = c1c(C[*:1])cc(C[*:3])cc1C[*:2]; Tic = O=C(O)[C@@H]1Cc2ccccc2CN1; Dpg = CCCC(N)(CCC)C(=O)O; Aze = O=C(O)[C@@H]1CCN1

molecular target: T1, human plasma Kallikrein (Homo sapiens, UniProt P03952); experiment: Phage selections against human plasma Kallikrein (abundance in selection output); type: binding; details: Table 17; relative abundance in the total selection outputs
T1 construct: purchased Stratech, UK
T1 sequence (P03952 20-638): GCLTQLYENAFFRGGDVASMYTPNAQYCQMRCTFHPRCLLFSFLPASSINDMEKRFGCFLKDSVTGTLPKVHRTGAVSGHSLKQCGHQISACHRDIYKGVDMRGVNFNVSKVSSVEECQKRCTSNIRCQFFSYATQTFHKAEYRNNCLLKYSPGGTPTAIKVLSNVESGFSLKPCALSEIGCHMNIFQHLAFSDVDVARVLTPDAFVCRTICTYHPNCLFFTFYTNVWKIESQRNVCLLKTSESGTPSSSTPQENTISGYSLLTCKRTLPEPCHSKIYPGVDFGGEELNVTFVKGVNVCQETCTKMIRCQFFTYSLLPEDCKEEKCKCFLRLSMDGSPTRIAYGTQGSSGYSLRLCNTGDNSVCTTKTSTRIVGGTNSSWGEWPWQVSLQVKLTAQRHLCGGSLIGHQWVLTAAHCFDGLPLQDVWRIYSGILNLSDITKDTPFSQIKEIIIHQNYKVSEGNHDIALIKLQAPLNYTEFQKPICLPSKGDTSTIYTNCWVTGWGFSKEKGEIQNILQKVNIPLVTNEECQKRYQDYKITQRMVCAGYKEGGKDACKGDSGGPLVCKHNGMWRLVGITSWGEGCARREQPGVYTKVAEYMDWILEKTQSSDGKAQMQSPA
Description: Glycerol stocks of phage libraries were diluted to OD600=0.1 in 500 ml 2YT/chloramphenicol (30 μg/ml) cultures and phage were produced at 30° C. over night (15-16 hrs). Phage were purified and chemically modified as described in Heinis, et al., Nat Chem Biol 2009, 5 (7), 502-7 Biotinylated hPK (3 μg) (IHPKA, from human plasma, Innovative Research, Novi, Mich., USA) was incubated with 50 μl pre-washed magnetic streptavidin beads (Dynal, M-280 from Invitrogen, Paisley, UK) for 10 minutes at RT. Beads were washed 3 times prior to blocking with 0.5 ml washing buffer (10 mM Tris-Cl, pH 7.4, 150 mM NaCl, 10 mM MgCl2, 1 mM CaCl2) containing 1% BSA and 0.1% Tween 20 for 30 minutes at RT with rotation. […] Blocked beads were then mixed with the blocked chemically modified phage and incubated for 30 minutes on a rotating wheel at
RT. Beads were washed 8 times with washing buffer containing 0.1% Tween 20 and twice with washing buffer before incubation with 100 μl of 50 mM glycine, pH 2.2 for 5 minutes. Eluted phage were transferred to 50 μl of 1 M Tris-Cl, pH 8 for neutralization, incubated with 30 ml TG1 cells at OD600=0.4 for 90 minutes at 37° C. and the cells were plated on large 2YT/chloramphenicol plates. One or two additional rounds of panning were performed using the same procedures. In the second round of selection, neutravidin-coated magnetic beads were used to prevent the enrichment of streptavidin-specific peptides. The neutravidin beads were prepared by reacting 0.8 mg neutravidin (Pierce, Rockford, Ill., USA) with 0.5 ml tosyl-activated magnetic beads (Dynal, M-280 from Invitrogen, Paisley, UK) according to the supplier's instructions.
The WPAR (SEQ ID No. 19) motif identified from Example 1 was analysed in the context of the 06-34-03 peptide, in order to identify alternatives or improvements to the WPAR motif. A library was constructed where positions 1, 6, 7, 8, 9 &10 of 06-34-03 were fixed and positions 2, 3, 4 & 5 were randomised (see ‘Randomisation of peptide domains—Library construction’ in Methods above). Selections against human plasma Kallikrein were performed at a variety of stringencies (see Phage selections' in Methods above). All output sequences were identified and analysed for target binding (see ‘Randomisation of peptide domains—Assay of binding of individual clones’ in Methods above). Table 17 lists each unique sequence, its relative abundance in the selection output (frequency), and a rank number according to target binding strength.

Compound	FREQUENCY
CSLFDHCTHQDLC	1
CSQVVGCTHQDLC	1
CSFPWRCTHQDLC	1
CSWAARCTHQDLC	1

tested on: not listed separately; experiment: Plasma stability / fragment profiling Method #2 (MALDI-TOF, 95% plasma), human plasma; type: in vitro ADME; details: running text and figure legends
Description: To obtain stability data more rapidly, peptides were also assessed in 95% plasma. Here, PBS was omitted, and a 1 mM peptide stock (in DMSO) was directly diluted into plasma (i.e. 2.5 uL stock into 47.5 uL plasma), giving a final concentration of 50 uM. 5 uL samples were taken at appropriate time points and frozen at −80 deg C. For analysis, the samples were defrosted, mixed with 15 uL of 1:1 acetonitrile:methanol, and centrifuged at 13 k for 5 min. 5 uL of the peptide-containing supernatant was aspirated and mixed with 30 mM ammonium bicarbonate in a 1:1 mixture of acetonitrile:H2O. 1 uL of this was then spotted on the MALDI plate and analysed as described above. As above, it should be noted that this is a qualitative assay serves to detect relative changes in plasma stability.
Ac-06-34-18(TMB)-NH2 Phe2 Tyr4 (referred to as wild type peptide) was subsequently subjected to human plasma, and analysed for fragments to appear over time. This was compared to the degradation profile observed in human plasma using the NMe-Arg5 derivative of 06-34-18 (FIGS. 18a and 18b). Fragmentation was determined according to Method #2.

Compound	degradation / fragments in human plasma (in words)
CC(=O)N[C@H]1CSCc2cc3cc(c2)CSC[C@H](NC(=O)[C@H](CCCNC(=N)N)NC(=O)[C@H](Cc2ccc(O)cc2)NC(=O)[C@@H]2CCCN2C(=O)[C@H](Cc2ccccc2)NC(=O)[C@H](CO)NC1=O)C(=O)N[C@@H](CC(C)C)C(=O)N(CCc1c[nH]cn1)CC(=O)N[C@@H](CCC(N)=O)C(=O)N[C@@H](CC(=O)O)C(=O)N[C@@H](CC(C)C)C(=O)N[C@H](C(N)=O)CSC3 [Ac-(06-34-18) Phe2 Tyr4 N-His] (Ac-CSFPYRCL[Gly(N-CH2CH2-imidazol-4-yl)]QDLC-NH2; linker 1-7-13 via TBMB)	significantly enhanced stability in loop2

molecular target: T1, human plasma Kallikrein; experiment: Functional enzyme inhibition assay with fluorogenic substrate Z-PheArg-AMC, human plasma Kallikrein; type: biochemical; details: not given
Procedure, shortened: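 Human plasma kallikrein at 26.5 pM was preincubated 15 minutes with test peptide in Tris/NaCl/MgCl2/CaCl2/BSA buffer pH7.4 at 25° C, then Z-PheArg-AMC added to 100 μM final in 4% DMSO.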

Compound	reduction in potency/affinity compared to wildtype [fold]	affinity surpassing that of wildtype by a factor
CC(=O)N[C@H]1CSCc2cc3cc(c2)CSC[C@H](NC(=O)[C@H](CCCNC(=N)N)NC(=O)[C@H](C)NC(=O)[C@@H]2CCCN2C(=O)[C@H](Cc2ccccc2)NC(=O)[C@H](CO)NC1=O)C(=O)N[C@@H](CC(C)C)C(=O)N[C@@H](Cc1c[nH]cn1)C(=O)N[C@@H](CCC(N)=O)C(=O)N[C@@H](CC(=O)O)C(=O)N[C@@H](CC(C)C)C(=O)N[C@H](C(N)=O)CSC3 [Ac-(06-34-18) FPAR] (Ac-CSFPARCLHQDLC-NH2; linker 1-7-13 via TBMB)	40	–
CC(=O)N[C@H]1CSCc2cc3cc(c2)CSC[C@H](NC(=O)[C@H](CCCNC(=N)N)NC(=O)[C@H](C)NC(=O)[C@@H]2CCN2C(=O)[C@H](Cc2c[nH]c4ccccc24)NC(=O)[C@H](CO)NC1=O)C(=O)N[C@@H](CC(C)C)C(=O)N[C@@H](Cc1c[nH]cn1)C(=O)N[C@@H](CCC(N)=O)C(=O)N[C@@H](CC(=O)O)C(=O)N[C@@H](CC(C)C)C(=O)N[C@H](C(N)=O)CSC3 [Ac-(06-34-18) Aze3] (Ac-CSW[Aze]ARCLHQDLC-NH2; linker 1-7-13 via TBMB)	–	3

same assay, conditions: Table 14; read-out: Ki (nM) (human kallikrein)

Compound	Ki [nM]
CCCC1(CCC)NC(=O)[C@@H](NC(C)=O)CSCc2cc3cc(c2)CSC[C@H](NC(=O)[C@H](CCCNC(=N)N)NC(=O)[C@H](C)NC(=O)[C@@H]2CCCN2C(=O)[C@H](Cc2c[nH]c4ccccc24)NC1=O)C(=O)N[C@@H](CC(C)C)C(=O)N[C@@H](Cc1c[nH]cn1)C(=O)N[C@@H](CCC(N)=O)C(=O)N[C@@H](CC(=O)O)C(=O)N[C@@H](CC(C)C)C(=O)N[C@H](C(N)=O)CSC3 [Ac-(06-34-18) Dpg1] (Ac-C[Dpg]WPARCLHQDLC-NH2; linker 1-7-13 via TBMB)	1.09

same assay, conditions: read-out: Ki / affinity to human Kallikrein

Compound	Ki [nM]
CCCC1(CCC)NC(=O)[C@@H](NC(C)=O)CSCc2cc3cc(c2)CSC[C@H](NC(=O)[C@H](CCCNC(=N)N)NC(=O)[C@H](C)NC(=O)[C@@H]2CCCN2C(=O)[C@H](Cc2c[nH]c4ccccc24)NC1=O)C(=O)N[C@@H](CC(C)C)C(=O)N[C@@H](Cc1c[nH]cn1)C(=O)N[C@@H](CCC(N)=O)C(=O)N[C@@H](CC(=O)O)C(=O)N[C@@H](CC(C)C)C(=O)N[C@H](C(N)=O)CSC3 [Ac-(06-34-18) Dpg1] (Ac-C[Dpg]WPARCLHQDLC-NH2; linker 1-7-13 via TBMB)	1.1

tested on: not listed separately; experiment: Plasma stability profiling Method #1 (MALDI-TOF, 35% plasma), rat plasma; type: in vitro ADME; details: Table 12; method #1
Description: A rapid plasma stability profiling assay was developed that employed mass spectrometric detection (MALDI-TOF, Voyager DE, Applied Biosystems) of the parent mass, until the time when the parent peptide mass was no longer observable. Specifically, 200 uM of peptide was incubated in the presence of 35% rat or human plasma (Sera labs, using citrate as anticoagulant) at 37 deg C., which was supplemented with 1×PBS (derived from a 10×PBS Stock, Sigma). At various time points (i.e. t=0, 3, 24 hrs, henceafter daily up to 10 days), 2 uL of sample was added to 18 uL of 30 mM ammonium bicarbonate in a 1:1 mixture of acetonitrile:H2O. Samples were frozen at −80 deg C. until the time of analysis. For mass spectrometric analysis that determines the approximate detection window of the peptide, the acetonitrile:H2O-diluted sample of a given time point was spotted directly (0.7 uL) onto the MALDI plate. Matrix (alpha-cyanocinnamic acid, Sigma, prepared as a saturated solution in 1:1 acetonitrile:water containing 0.1% trifluoroacetic acid) was layered over the sample (1 uL). At a similar laser intensity setting on the MALDI TOF, the time could then be determined until parent peptide was no longer detectable. It should be noted that this is a qualitative assay serves to detect relative changes in plasma stability.

Compound	Observable in rat plasma, for days [days]
CC(=O)N[C@H]1CSCc2cc3cc(c2)CSC[C@H](NC(=O)[C@H](CCCNC(=N)N)NC(=O)[C@H](C)NC(=O)[C@@H]2CCCN2C(=O)[C@H](Cc2ccc4ccccc4c2)NC(=O)[C@H](CO)NC1=O)C(=O)N[C@@H](CC(C)C)C(=O)N[C@@H](Cc1c[nH]cn1)C(=O)N[C@@H](CCC(N)=O)C(=O)N[C@@H](CC(=O)O)C(=O)N[C@@H](CC(C)C)C(=O)N[C@H](C(N)=O)CSC3 [Ac-(06-34-18) 2NAL2] (Ac-CS[2Nal]PARCLHQDLC-NH2; linker 1-7-13 via TBMB)	2

same assay, conditions: Table 13; method #1

Compound	Observable in rat plasma, for days [days]
CC(=O)N[C@H]1CSCc2cc3cc(c2)CSC[C@H](NC(=O)[C@H](CCCNC(=N)N)NC(=O)[C@H](C)NC(=O)[C@@H]2CCN2C(=O)[C@H](Cc2c[nH]c4ccccc24)NC(=O)[C@H](CO)NC1=O)C(=O)N[C@@H](CC(C)C)C(=O)N[C@@H](Cc1c[nH]cn1)C(=O)N[C@@H](CCC(N)=O)C(=O)N[C@@H](CC(=O)O)C(=O)N[C@@H](CC(C)C)C(=O)N[C@H](C(N)=O)CSC3 [Ac-(06-34-18) Aze3] (Ac-CSW[Aze]ARCLHQDLC-NH2; linker 1-7-13 via TBMB)	2
CC(=O)N[C@H]1CSCc2cc3cc(c2)CSC[C@H](NC(=O)[C@H](CCCNC(=N)N)NC(=O)[C@H](C)NC(=O)[C@@H]2C[C@@H](c4ccccc4)CN2C(=O)[C@H](Cc2c[nH]c4ccccc24)NC(=O)[C@H](CO)NC1=O)C(=O)N[C@@H](CC(C)C)C(=O)N[C@@H](Cc1c[nH]cn1)C(=O)N[C@@H](CCC(N)=O)C(=O)N[C@@H](CC(=O)O)C(=O)N[C@@H](CC(C)C)C(=O)N[C@H](C(N)=O)CSC3 [Ac-(06-34-18) 4Phenyl Pro3] (Ac-CSW[Pro(trans-4-Ph)]ARCLHQDLC-NH2; linker 1-7-13 via TBMB)	2
CC(=O)N[C@H]1CSCc2cc3cc(c2)CSC[C@H](NC(=O)[C@H](CCCNC(=N)N)NC(=O)[C@H](C)NC(=O)[C@@H]2Cc4ccccc4CN2C(=O)[C@H](Cc2c[nH]c4ccccc24)NC(=O)[C@H](CO)NC1=O)C(=O)N[C@@H](CC(C)C)C(=O)N[C@@H](Cc1c[nH]cn1)C(=O)N[C@@H](CCC(N)=O)C(=O)N[C@@H](CC(=O)O)C(=O)N[C@@H](CC(C)C)C(=O)N[C@H](C(N)=O)CSC3 [Ac-(06-34-18) Tic3] (Ac-CSW[Tic]ARCLHQDLC-NH2; linker 1-7-13 via TBMB)	2

same assay, conditions: Table 14; method #1

Compound	Observable in rat plasma, for days [days]
CCCC1(CCC)NC(=O)[C@@H](NC(C)=O)CSCc2cc3cc(c2)CSC[C@H](NC(=O)[C@H](CCCNC(=N)N)NC(=O)[C@H](C)NC(=O)[C@@H]2CCCN2C(=O)[C@H](Cc2c[nH]c4ccccc24)NC1=O)C(=O)N[C@@H](CC(C)C)C(=O)N[C@@H](Cc1c[nH]cn1)C(=O)N[C@@H](CCC(N)=O)C(=O)N[C@@H](CC(=O)O)C(=O)N[C@@H](CC(C)C)C(=O)N[C@H](C(N)=O)CSC3 [Ac-(06-34-18) Dpg1] (Ac-C[Dpg]WPARCLHQDLC-NH2; linker 1-7-13 via TBMB)	2

same assay, conditions: Table 21; method #1

Compound	Observable in rat plasma, for days [days]
CC(=O)N[C@H]1CSCc2cc3cc(c2)CSC[C@H](NC(=O)[C@H](CCCNC(=N)N)NC(=O)[C@H](C)NC(=O)[C@@H]2CCCN2C(=O)[C@H](Cc2ccccc2)NC(=O)[C@H](CO)NC1=O)C(=O)N[C@@H](CC(C)C)C(=O)N[C@@H](Cc1c[nH]cn1)C(=O)N[C@@H](CCC(N)=O)C(=O)N[C@@H](CC(=O)O)C(=O)N[C@@H](CC(C)C)C(=O)N[C@H](C(N)=O)CSC3 [Ac-(06-34-18) FPAR] (Ac-CSFPARCLHQDLC-NH2; linker 1-7-13 via TBMB)	2
